According to ChEMBL document CHEMBL4507302, “Data for DCP probe TP-020” (2021):

How the values were obtained:
[1] = test system: Tyrosine-protein kinase ABL1 (Homo sapiens), P00519 [Q252H]; details: Compound concentration 1000.0 nM
[2] = biological target: Phosphatidylinositol 4-kinase beta (Homo sapiens) (UniProt Q9UBF8); details: Compound concentration 1000.0 nM
[3] = biological target: Mitogen-activated protein kinase 14 (Homo sapiens) (UniProt Q16539); details: Compound concentration 1000.0 nM
[4] = biological target: Aurora kinase B (Homo sapiens) (UniProt Q96GD4); details: Compound concentration 1000.0 nM
[5] = biological target: Activin receptor type-1-like (Homo sapiens) (UniProt P37023); details: Compound concentration 1000.0 nM
[6] = biological target: Mitogen-activated protein kinase kinase kinase 19 (Homo sapiens) (UniProt Q56UN5); details: Compound concentration 1000.0 nM
[7] = biological target: Macrophage colony-stimulating factor 1 receptor (Homo sapiens) (UniProt P07333); details: Compound concentration 1000.0 nM
[8] = biological target: SNF-related serine/threonine-protein kinase (Homo sapiens) (UniProt Q9NRH2); details: Compound concentration 1000.0 nM
[9] = biological target: Serine/threonine-protein kinase 17B (Homo sapiens) (UniProt O94768); details: Compound concentration 1000.0 nM
[10] = biological target: Leukocyte tyrosine kinase receptor (Homo sapiens) (UniProt P29376); details: Compound concentration 1000.0 nM
[11] = biological target: Interleukin-1 receptor-associated kinase 4 (Homo sapiens) (UniProt Q9NWZ3); details: Compound concentration 1000.0 nM
[12] = biological target: Ephrin type-A receptor 5 (Homo sapiens) (UniProt P54756); details: Compound concentration 1000.0 nM
[13] = biological target: Serine/threonine-protein kinase D1 (Homo sapiens) (UniProt Q15139); details: Compound concentration 1000.0 nM
[14] = biological target: Serine/threonine-protein kinase Nek4 (Homo sapiens) (UniProt P51957); details: Compound concentration 1000.0 nM
[15] = biological target: Cyclin-dependent kinase 5 (Homo sapiens) (UniProt Q00535); details: Compound concentration 1000.0 nM
[16] = biological target: Tyrosine-protein kinase receptor TYRO3 (Homo sapiens) (UniProt Q06418); details: Compound concentration 1000.0 nM
[17] = biological target: Serine/threonine-protein kinase 3 (Homo sapiens) (UniProt Q13188); details: Compound concentration 1000.0 nM
[18] = biological target: Serine/threonine-protein kinase MARK1 (Homo sapiens) (UniProt Q9P0L2); details: Compound concentration 1000.0 nM
[19] = biological target: Protein-tyrosine kinase 2-beta (Homo sapiens) (UniProt Q14289); details: Compound concentration 1000.0 nM
[20] = biological target: Ephrin type-A receptor 8 (Homo sapiens) (UniProt P29322); details: Compound concentration 1000.0 nM
[21] = biological target: D(2) dopamine receptor (Homo sapiens) (UniProt P14416); details: Compound concentration 10.0 uM
[22] = biological target: Serine/threonine-protein kinase Nek1 (Homo sapiens) (UniProt Q96PY6); details: Compound concentration 1000.0 nM
[23] = biological target: Mitogen-activated protein kinase kinase kinase kinase 3 (Homo sapiens) (UniProt Q8IVH8); details: Compound concentration 1000.0 nM
[24] = biological target: Dual specificity protein kinase CLK4 (Homo sapiens) (UniProt Q9HAZ1); details: Compound concentration 1000.0 nM
[25] = biological target: Testis-specific serine/threonine-protein kinase 3 (Homo sapiens) (UniProt Q96PN8); details: Compound concentration 1000.0 nM
[26] = test system: Receptor-type tyrosine-protein kinase FLT3 (Homo sapiens), P36888 [D835H]; details: Compound concentration 1000.0 nM
[27] = biological target: Insulin receptor-related protein (Homo sapiens) (UniProt P14616); details: Compound concentration 1000.0 nM
[28] = biological target: Mitogen-activated protein kinase kinase kinase 13 (Homo sapiens) (UniProt O43283); details: Compound concentration 1000.0 nM
[29] = biological target: Misshapen-like kinase 1 (Homo sapiens) (UniProt Q8N4C8); details: Compound concentration 1000.0 nM
[30] = biological target: Tyrosine-protein kinase FRK (Homo sapiens) (UniProt P42685); details: Compound concentration 1000.0 nM
[31] = test system: Phosphatidylinositol 4,5-bisphosphate 3-kinase catalytic subunit alpha isoform (Homo sapiens), P42336 [Q546K]; details: Compound concentration 1000.0 nM
[32] = test system: Tyrosine-protein kinase ABL1 (Homo sapiens), P00519 [F317I]; details: Compound concentration 1000.0 nM
[33] = biological target: Calcium/calmodulin-dependent protein kinase type II subunit gamma (Homo sapiens) (UniProt Q13555); details: Compound concentration 1000.0 nM
[34] = biological target: Ephrin type-B receptor 2 (Homo sapiens) (UniProt P29323); details: Compound concentration 1000.0 nM
[35] = biological target: Myosin light chain kinase family member 4 (Homo sapiens) (UniProt Q86YV6); details: Compound concentration 1000.0 nM
[36] = biological target: Megakaryocyte-associated tyrosine-protein kinase (Homo sapiens) (UniProt P42679); details: Compound concentration 1000.0 nM
[37] = test system: Receptor-type tyrosine-protein kinase FLT3 (Homo sapiens), P36888 [UNDEFINED MUTATION]; details: Compound concentration 1000.0 nM
[38] = biological target: Phosphorylase b kinase regulatory subunit alpha, liver isoform (Homo sapiens) (UniProt P46019); details: Compound concentration 1000.0 nM
[39] = test system: Epidermal growth factor receptor (Homo sapiens), P00533 [UNDEFINED MUTATION]; details: Compound concentration 1000.0 nM
[40] = biological target: Dual specificity tyrosine-phosphorylation-regulated kinase 1A (Homo sapiens) (UniProt Q13627); details: Compound concentration 1000.0 nM
[41] = biological target: Bone morphogenetic protein receptor type-1A (Homo sapiens) (UniProt P36894); details: Compound concentration 1000.0 nM
[42] = biological target: Homeodomain-interacting protein kinase 1 (Homo sapiens) (UniProt Q86Z02); details: Compound concentration 1000.0 nM
[43] = biological target: Cyclin-dependent kinase-like 5 (Homo sapiens) (UniProt O76039); details: Compound concentration 1000.0 nM
[44] = biological target: Maternal embryonic leucine zipper kinase (Homo sapiens) (UniProt Q14680); details: Compound concentration 1000.0 nM
[45] = biological target: Serine/threonine-protein kinase Sgk3 (Homo sapiens) (UniProt Q96BR1); details: Compound concentration 1000.0 nM

Chain of Maternal embryonic leucine zipper kinase (Homo sapiens) (Q14680 whole entry, looked up): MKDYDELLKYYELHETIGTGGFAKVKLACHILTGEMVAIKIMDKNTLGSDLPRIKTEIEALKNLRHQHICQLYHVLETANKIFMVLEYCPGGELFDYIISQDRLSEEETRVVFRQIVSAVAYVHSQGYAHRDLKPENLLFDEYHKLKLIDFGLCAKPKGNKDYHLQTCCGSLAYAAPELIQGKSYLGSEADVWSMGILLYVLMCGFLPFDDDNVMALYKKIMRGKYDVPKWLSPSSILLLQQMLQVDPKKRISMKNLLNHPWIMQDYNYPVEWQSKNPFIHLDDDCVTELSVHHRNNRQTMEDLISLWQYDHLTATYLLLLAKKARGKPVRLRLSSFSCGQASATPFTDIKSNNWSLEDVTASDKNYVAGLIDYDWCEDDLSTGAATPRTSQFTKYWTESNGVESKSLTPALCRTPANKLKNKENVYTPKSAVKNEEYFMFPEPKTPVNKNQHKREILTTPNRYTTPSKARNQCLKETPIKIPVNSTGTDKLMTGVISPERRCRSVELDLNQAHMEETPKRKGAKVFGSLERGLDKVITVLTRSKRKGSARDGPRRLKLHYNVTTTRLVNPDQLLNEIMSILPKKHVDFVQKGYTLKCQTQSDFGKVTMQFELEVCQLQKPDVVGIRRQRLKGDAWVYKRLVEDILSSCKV
Chain of Cyclin-dependent kinase-like 5 (Homo sapiens) (O76039 whole entry): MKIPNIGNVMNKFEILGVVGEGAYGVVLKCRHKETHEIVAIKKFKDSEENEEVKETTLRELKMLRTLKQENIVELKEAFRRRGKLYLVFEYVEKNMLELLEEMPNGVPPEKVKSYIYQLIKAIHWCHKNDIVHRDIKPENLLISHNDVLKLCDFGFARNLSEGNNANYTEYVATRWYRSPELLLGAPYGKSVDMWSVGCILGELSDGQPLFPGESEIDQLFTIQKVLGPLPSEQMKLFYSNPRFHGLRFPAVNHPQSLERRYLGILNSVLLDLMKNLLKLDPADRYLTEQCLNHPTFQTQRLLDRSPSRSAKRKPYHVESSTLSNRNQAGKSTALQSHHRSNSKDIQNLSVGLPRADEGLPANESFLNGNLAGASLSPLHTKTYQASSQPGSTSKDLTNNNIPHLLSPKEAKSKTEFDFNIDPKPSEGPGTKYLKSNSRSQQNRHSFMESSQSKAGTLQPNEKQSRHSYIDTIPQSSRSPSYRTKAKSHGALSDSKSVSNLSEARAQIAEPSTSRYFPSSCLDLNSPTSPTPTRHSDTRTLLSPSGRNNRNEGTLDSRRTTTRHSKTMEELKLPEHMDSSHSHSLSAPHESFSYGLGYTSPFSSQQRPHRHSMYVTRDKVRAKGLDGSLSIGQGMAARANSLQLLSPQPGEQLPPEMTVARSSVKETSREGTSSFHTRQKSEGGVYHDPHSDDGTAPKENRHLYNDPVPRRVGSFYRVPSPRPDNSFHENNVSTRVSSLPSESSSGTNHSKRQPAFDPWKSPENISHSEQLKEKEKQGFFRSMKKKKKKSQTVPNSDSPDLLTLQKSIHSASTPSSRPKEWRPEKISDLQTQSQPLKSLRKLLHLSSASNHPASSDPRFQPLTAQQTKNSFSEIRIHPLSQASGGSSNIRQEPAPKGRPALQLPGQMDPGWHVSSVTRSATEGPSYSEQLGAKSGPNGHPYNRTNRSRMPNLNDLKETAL
Chain of Interleukin-1 receptor-associated kinase 4 (Homo sapiens) (Q9NWZ3 whole entry): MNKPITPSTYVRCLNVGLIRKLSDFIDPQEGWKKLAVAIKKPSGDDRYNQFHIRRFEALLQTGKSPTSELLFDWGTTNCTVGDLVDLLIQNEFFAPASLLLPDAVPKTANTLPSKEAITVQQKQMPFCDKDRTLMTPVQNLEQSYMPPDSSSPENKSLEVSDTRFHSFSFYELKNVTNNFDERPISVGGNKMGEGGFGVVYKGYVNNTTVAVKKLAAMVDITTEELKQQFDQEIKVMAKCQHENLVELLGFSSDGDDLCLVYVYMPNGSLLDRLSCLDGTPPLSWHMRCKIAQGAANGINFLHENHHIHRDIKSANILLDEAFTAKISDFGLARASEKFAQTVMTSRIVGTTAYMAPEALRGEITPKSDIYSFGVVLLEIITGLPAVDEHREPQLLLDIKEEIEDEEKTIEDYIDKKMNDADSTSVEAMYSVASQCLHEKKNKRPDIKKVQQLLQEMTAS
Chain of Megakaryocyte-associated tyrosine-protein kinase (Homo sapiens) (P42679 whole entry): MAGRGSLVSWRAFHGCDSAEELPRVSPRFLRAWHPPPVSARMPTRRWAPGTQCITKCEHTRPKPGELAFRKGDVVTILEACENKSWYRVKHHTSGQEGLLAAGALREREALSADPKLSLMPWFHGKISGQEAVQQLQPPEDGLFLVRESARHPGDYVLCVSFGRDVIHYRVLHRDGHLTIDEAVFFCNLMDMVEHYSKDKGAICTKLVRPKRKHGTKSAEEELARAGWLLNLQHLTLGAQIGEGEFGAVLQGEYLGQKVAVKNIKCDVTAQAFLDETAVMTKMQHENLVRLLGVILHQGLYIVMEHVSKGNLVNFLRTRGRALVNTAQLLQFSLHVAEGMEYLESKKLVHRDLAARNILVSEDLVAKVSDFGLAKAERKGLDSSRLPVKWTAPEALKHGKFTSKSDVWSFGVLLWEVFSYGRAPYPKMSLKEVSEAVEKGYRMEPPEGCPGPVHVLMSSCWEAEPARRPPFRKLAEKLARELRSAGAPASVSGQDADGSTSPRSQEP
Chain of Myosin light chain kinase family member 4 (Homo sapiens) (Q86YV6 whole entry): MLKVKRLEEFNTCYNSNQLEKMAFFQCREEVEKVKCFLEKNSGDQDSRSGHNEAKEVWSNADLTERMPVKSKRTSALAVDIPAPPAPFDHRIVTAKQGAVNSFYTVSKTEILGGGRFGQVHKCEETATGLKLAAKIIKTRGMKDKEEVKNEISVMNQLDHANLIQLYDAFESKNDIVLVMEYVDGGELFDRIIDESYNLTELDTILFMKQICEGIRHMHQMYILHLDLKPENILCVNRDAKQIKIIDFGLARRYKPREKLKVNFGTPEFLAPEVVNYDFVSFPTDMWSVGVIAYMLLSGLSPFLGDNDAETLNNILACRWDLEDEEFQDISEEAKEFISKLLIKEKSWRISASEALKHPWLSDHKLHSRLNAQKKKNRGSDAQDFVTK
Chain of D(2) dopamine receptor (Homo sapiens) (P14416 whole entry): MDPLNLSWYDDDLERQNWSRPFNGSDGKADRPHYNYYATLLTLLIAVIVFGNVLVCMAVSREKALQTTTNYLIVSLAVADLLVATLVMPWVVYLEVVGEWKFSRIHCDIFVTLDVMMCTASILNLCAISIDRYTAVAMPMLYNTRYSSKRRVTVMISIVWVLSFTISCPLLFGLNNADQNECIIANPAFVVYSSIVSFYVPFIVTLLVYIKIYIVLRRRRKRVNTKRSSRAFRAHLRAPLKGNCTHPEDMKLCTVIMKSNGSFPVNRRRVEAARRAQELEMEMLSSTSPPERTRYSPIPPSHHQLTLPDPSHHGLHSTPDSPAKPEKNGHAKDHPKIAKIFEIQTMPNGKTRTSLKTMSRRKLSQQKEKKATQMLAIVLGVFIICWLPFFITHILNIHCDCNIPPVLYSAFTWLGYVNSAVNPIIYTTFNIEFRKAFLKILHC
Chain of Mitogen-activated protein kinase kinase kinase 13 (Homo sapiens) (O43283 whole entry): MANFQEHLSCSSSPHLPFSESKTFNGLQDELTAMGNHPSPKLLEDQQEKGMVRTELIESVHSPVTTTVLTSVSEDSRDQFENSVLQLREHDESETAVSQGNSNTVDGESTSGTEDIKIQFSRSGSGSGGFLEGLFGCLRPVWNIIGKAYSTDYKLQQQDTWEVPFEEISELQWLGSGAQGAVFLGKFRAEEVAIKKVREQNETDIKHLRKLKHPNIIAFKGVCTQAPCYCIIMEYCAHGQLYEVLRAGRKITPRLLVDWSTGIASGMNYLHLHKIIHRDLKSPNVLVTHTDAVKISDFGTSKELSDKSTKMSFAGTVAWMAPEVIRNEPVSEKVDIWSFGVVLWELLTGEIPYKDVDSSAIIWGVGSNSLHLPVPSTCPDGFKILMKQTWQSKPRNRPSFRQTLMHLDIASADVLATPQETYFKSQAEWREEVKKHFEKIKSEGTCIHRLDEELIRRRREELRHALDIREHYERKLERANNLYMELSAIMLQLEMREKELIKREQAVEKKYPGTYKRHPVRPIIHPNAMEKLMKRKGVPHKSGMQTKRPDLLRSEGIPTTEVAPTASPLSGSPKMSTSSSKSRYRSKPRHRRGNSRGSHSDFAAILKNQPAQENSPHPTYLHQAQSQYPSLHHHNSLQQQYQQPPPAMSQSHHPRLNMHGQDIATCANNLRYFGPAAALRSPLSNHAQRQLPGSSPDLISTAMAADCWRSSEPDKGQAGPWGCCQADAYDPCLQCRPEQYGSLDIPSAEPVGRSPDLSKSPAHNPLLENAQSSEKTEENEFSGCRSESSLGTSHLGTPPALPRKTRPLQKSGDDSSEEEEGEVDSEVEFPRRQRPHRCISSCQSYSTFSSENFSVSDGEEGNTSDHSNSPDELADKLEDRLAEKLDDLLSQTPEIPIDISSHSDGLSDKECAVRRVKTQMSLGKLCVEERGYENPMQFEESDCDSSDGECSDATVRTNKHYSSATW
Chain of Aurora kinase B (Homo sapiens) (Q96GD4 whole entry): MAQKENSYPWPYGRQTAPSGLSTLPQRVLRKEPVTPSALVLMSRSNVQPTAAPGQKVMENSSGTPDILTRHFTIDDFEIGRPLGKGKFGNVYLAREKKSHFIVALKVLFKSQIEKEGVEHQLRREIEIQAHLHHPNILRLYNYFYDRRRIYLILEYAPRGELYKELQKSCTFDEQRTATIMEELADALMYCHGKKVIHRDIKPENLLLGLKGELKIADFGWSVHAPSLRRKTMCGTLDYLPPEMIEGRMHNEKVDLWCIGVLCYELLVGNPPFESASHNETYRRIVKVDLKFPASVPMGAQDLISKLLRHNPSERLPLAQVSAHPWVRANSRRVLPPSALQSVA
Chain of Cyclin-dependent kinase 5 (Homo sapiens) (Q00535 whole entry, looked up): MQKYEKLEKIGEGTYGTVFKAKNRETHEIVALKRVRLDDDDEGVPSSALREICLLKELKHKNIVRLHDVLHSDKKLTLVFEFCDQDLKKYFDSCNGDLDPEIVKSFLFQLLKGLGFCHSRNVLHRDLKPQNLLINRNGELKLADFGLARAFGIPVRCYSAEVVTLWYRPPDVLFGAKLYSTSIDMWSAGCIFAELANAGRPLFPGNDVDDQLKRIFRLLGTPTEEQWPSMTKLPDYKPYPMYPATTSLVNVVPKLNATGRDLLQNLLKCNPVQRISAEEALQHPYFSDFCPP

Compound Nc1cnc(N2CCc3cc(S(=O)(=O)Nc4c(F)cc(Cl)cc4F)cc(N4CCCC4=O)c32)nc1 has a residual activity [1] of 98%, a residual activity [2] of 93% and a residual activity [3] of 100%. For the same compound, the residual activity [4] was 98%, the residual activity [5] was 86% and the residual activity [6] was 100%. For the same compound, the residual activity [7] was 100%, the residual activity [8] was 100% and the residual activity [9] was 100%. It also gave a residual activity [10] of 100%, a residual activity [11] of 100% and a residual activity [12] of 100%. It also gave a residual activity [13] of 83%, a residual activity [14] of 97% and a residual activity [15] of 100%. The residual activity [16] was 100%, the residual activity [17] was 96% and the residual activity [18] was 76%. The residual activity [19] was 100%, the residual activity [20] was 100% and the inhibition [21] was -0.42%. For the same compound, the residual activity [22] was 46%, the residual activity [23] was 93% and the residual activity [24] was 89%. For the same compound, the residual activity [25] was 100%, the residual activity [26] was 100% and the residual activity [27] was 100%. The residual activity [28] was 100%, the residual activity [29] was 100% and the residual activity [30] was 62%. For the same compound, the residual activity [31] was 78%, the residual activity [32] was 100% and the residual activity [33] was 100%. The residual activity [34] was 87%, the residual activity [35] was 100% and the residual activity [36] was 100%. It also gave a residual activity [37] of 92%, a residual activity [38] of 100% and a residual activity [39] of 100%. For the same compound, the residual activity [40] was 80%, the residual activity [41] was 91% and the residual activity [42] was 91%. For the same compound, the residual activity [43] was 88%, the residual activity [44] was 90% and the residual activity [45] was 100%.

Cn1nc(C(F)(F)F)cc1-c1cnc(N2CCc3cc(S(=O)(=O)Nc4c(F)cc(Cl)cc4F)cc(N4CCCC4=O)c32)nc1 [TP-020] was tested, and the residual activity [1] was 99%, the residual activity [2] was 77% and the residual activity [3] was 100%. It also gave a residual activity [4] of 86%, a residual activity [5] of 87% and a residual activity [6] of 82%. The residual activity [7] was 82%, the residual activity [8] was 87% and the residual activity [9] was 100%. For the same compound, the residual activity [10] was 94%, the residual activity [11] was 82% and the residual activity [12] was 94%. It also gave a residual activity [13] of 80%, a residual activity [14] of 72% and a residual activity [15] of 100%. It also gave a residual activity [16] of 100%, a residual activity [17] of 90% and a residual activity [18] of 92%. The residual activity [19] was 100%, the residual activity [20] was 65% and the inhibition [21] was -0.24%. It also gave a residual activity [22] of 100%, a residual activity [23] of 84% and a residual activity [24] of 90%. For the same compound, the residual activity [25] was 94%, the residual activity [26] was 100% and the residual activity [27] was 90%. It also gave a residual activity [28] of 79%, a residual activity [29] of 99% and a residual activity [30] of 83%. For the same compound, the residual activity [31] was 82%, the residual activity [32] was 71% and the residual activity [33] was 95%. The residual activity [34] was 100%, the residual activity [35] was 99% and the residual activity [36] was 91%. The residual activity [37] was 96%, the residual activity [38] was 96% and the residual activity [39] was 100%. For the same compound, the residual activity [40] was 93%, the residual activity [41] was 98% and the residual activity [42] was 87%. The residual activity [43] was 91%, the residual activity [44] was 100% and the residual activity [45] was 78%.
